Test results as given in PubChem BioAssay (NCI).
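Test compounds were applied to cells in 96-well plates for 48 hours at 5 doses. Abbreviation: GI50, concentration required for 50% inhibition of growth. At the TGI there is no net growth.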

Experiments:
Test in all cases: NCI-60 cell line screen, 48 h
DU-145 prostate = system: DU-145 prostate
ACHN renal = system: ACHN renal
A498 renal = system: A498 renal
OVCAR-8 ovarian = system: OVCAR-8 ovarian
OVCAR-4 ovarian = system: OVCAR-4 ovarian
A549 NSCLC = system: A549 NSCLC
MALME-3M melanoma = system: MALME-3M melanoma
MDA-MB-435 = system: MDA-MB-435
SF-268 CNS = system: SF-268 CNS
SK-MEL-2 melanoma = system: SK-MEL-2 melanoma
NCI-H522 lung = system: NCI-H522 lung
K-562 leukemia = system: K-562 leukemia
COLO 205 colon = system: COLO 205 colon
HCT-116 colon = system: HCT-116 colon
RXF 393 renal = system: RXF 393 renal
SNB-75 CNS = system: SNB-75 CNS
RPMI-8226 leukemia = system: RPMI-8226 leukemia
HOP-62 NSCLC = system: HOP-62 NSCLC
SW-620 colon = system: SW-620 colon
CAKI-1 renal = system: CAKI-1 renal
LOX IMVI melanoma = system: LOX IMVI melanoma
CCRF-CEM leukemia = system: CCRF-CEM leukemia
U251 CNS = system: U251 CNS
786-0 renal = system: 786-0 renal
SN12C renal = system: SN12C renal
MOLT-4 leukemia = system: MOLT-4 leukemia
HCT-15 colon = system: HCT-15 colon
SF-295 CNS = system: SF-295 CNS
OVCAR-5 ovarian = system: OVCAR-5 ovarian
SF-539 CNS = system: SF-539 CNS
HS 578T breast = system: HS 578T breast
MCF7 breast = system: MCF7 breast
SK-MEL-28 melanoma = system: SK-MEL-28 melanoma
T-47D breast = system: T-47D breast
PC-3 prostate = system: PC-3 prostate
UACC-62 melanoma = system: UACC-62 melanoma
KM12 colon = system: KM12 colon
UO-31 renal = system: UO-31 renal
TK-10 renal = system: TK-10 renal
SK-OV-3 ovarian = system: SK-OV-3 ovarian
HOP-92 NSCLC = system: HOP-92 NSCLC
M14 melanoma = system: M14 melanoma
MDA-MB-231 breast = system: MDA-MB-231 breast
HT29 colon = system: HT29 colon
IGROV1 ovarian = system: IGROV1 ovarian
NCI-H23 lung = system: NCI-H23 lung
NCI-H226 lung = system: NCI-H226 lung
EKVX NSCLC = system: EKVX NSCLC
BT-549 breast = system: BT-549 breast
NCI-H460 lung = system: NCI-H460 lung
OVCAR-3 ovarian = system: OVCAR-3 ovarian
HCC-2998 colon = system: HCC-2998 colon
HL-60(TB) leukemia = system: HL-60(TB) leukemia
SNB-19 CNS = system: SNB-19 CNS
SK-MEL-5 melanoma = system: SK-MEL-5 melanoma
NCI/ADR-RES ovarian = system: NCI/ADR-RES ovarian
UACC-257 melanoma = system: UACC-257 melanoma

Structure (SMILES): O=[N+]([O-])c1ccc(N2CCOCC2)c2c1no[n+]2[O-]
- GI50 (DU-145 prostate): 1420 nM
- TGI (DU-145 prostate): 5760 nM
- GI50 (ACHN renal): 528 nM
- TGI (ACHN renal): 3150 nM
- GI50 (A498 renal): 1170 nM
- TGI (A498 renal): 3200 nM
- GI50 (OVCAR-8 ovarian): 1100 nM
- TGI (OVCAR-8 ovarian): 2620 nM
- GI50 (OVCAR-4 ovarian): 1380 nM
- TGI (OVCAR-4 ovarian): 3990 nM
- GI50 (A549 NSCLC): 1900 nM
- TGI (A549 NSCLC): 6280 nM
- GI50 (MALME-3M melanoma): 1520 nM
- TGI (MALME-3M melanoma): 4280 nM
- GI50 (MDA-MB-435): 2150 nM
- TGI (MDA-MB-435): 7350 nM
- GI50 (SF-268 CNS): 939 nM
- TGI (SF-268 CNS): 3030 nM
- GI50 (SK-MEL-2 melanoma): 2060 nM
- TGI (SK-MEL-2 melanoma): 5110 nM
- GI50 (NCI-H522 lung): 649 nM
- TGI (NCI-H522 lung): 2330 nM
- GI50 (K-562 leukemia): 1650 nM
- TGI (K-562 leukemia): 3570 nM
- GI50 (COLO 205 colon): 906 nM
- TGI (COLO 205 colon): 2240 nM
- GI50 (HCT-116 colon): 965 nM
- TGI (HCT-116 colon): 2240 nM
- GI50 (RXF 393 renal): 1490 nM
- TGI (RXF 393 renal): 4010 nM
- GI50 (SNB-75 CNS): 822 nM
- TGI (SNB-75 CNS): 5560 nM
- GI50 (RPMI-8226 leukemia): 1510 nM
- TGI (RPMI-8226 leukemia): 4090 nM
- GI50 (HOP-62 NSCLC): 1610 nM
- TGI (HOP-62 NSCLC): 6580 nM
- GI50 (SW-620 colon): 1180 nM
- TGI (SW-620 colon): 2480 nM
- GI50 (CAKI-1 renal): 443 nM
- TGI (CAKI-1 renal): 1890 nM
- GI50 (LOX IMVI melanoma): 675 nM
- TGI (LOX IMVI melanoma): 2130 nM
- GI50 (CCRF-CEM leukemia): 728 nM
- TGI (CCRF-CEM leukemia): 3860 nM
- GI50 (U251 CNS): 984 nM
- TGI (U251 CNS): 2320 nM
- GI50 (786-0 renal): 2120 nM
- TGI (786-0 renal): 6000 nM
- GI50 (SN12C renal): 1200 nM
- TGI (SN12C renal): 2850 nM
- GI50 (MOLT-4 leukemia): 850 nM
- TGI (MOLT-4 leukemia): 3430 nM
- GI50 (HCT-15 colon): 1320 nM
- TGI (HCT-15 colon): 2890 nM
- GI50 (SF-295 CNS): 1080 nM
- TGI (SF-295 CNS): 4670 nM
- GI50 (OVCAR-5 ovarian): 3280 nM
- TGI (OVCAR-5 ovarian): 13400 nM
- GI50 (SF-539 CNS): 1070 nM
- TGI (SF-539 CNS): 2270 nM
- GI50 (HS 578T breast): 1150 nM
- TGI (HS 578T breast): 4170 nM
- GI50 (MCF7 breast): 543 nM
- TGI (MCF7 breast): 2960 nM
- GI50 (SK-MEL-28 melanoma): 4320 nM
- TGI (SK-MEL-28 melanoma): 16000 nM
- GI50 (T-47D breast): 1140 nM
- TGI (T-47D breast): 4580 nM
- GI50 (PC-3 prostate): 1250 nM
- TGI (PC-3 prostate): 5530 nM
- GI50 (UACC-62 melanoma): 1210 nM
- TGI (UACC-62 melanoma): 3870 nM
- GI50 (KM12 colon): 1140 nM
- TGI (KM12 colon): 2480 nM
- GI50 (UO-31 renal): 1420 nM
- TGI (UO-31 renal): 5070 nM
- GI50 (TK-10 renal): 3850 nM
- TGI (TK-10 renal): 16700 nM
- GI50 (SK-OV-3 ovarian): 1430 nM
- TGI (SK-OV-3 ovarian): 4680 nM
- GI50 (HOP-92 NSCLC): 923 nM
- TGI (HOP-92 NSCLC): 5620 nM
- GI50 (M14 melanoma): 1110 nM
- TGI (M14 melanoma): 3810 nM
- GI50 (MDA-MB-231 breast): 2700 nM
- TGI (MDA-MB-231 breast): 15600 nM
- GI50 (HT29 colon): 1040 nM
- TGI (HT29 colon): 2800 nM
- GI50 (IGROV1 ovarian): 1300 nM
- TGI (IGROV1 ovarian): 4150 nM
- GI50 (NCI-H23 lung): 1080 nM
- TGI (NCI-H23 lung): 4830 nM
- GI50 (NCI-H226 lung): 2910 nM
- TGI (NCI-H226 lung): 17500 nM
- GI50 (EKVX NSCLC): 1930 nM
- TGI (EKVX NSCLC): 6720 nM
- GI50 (BT-549 breast): 1640 nM
- TGI (BT-549 breast): 6250 nM
- GI50 (NCI-H460 lung): 601 nM
- TGI (NCI-H460 lung): 2070 nM
- GI50 (OVCAR-3 ovarian): 1400 nM
- TGI (OVCAR-3 ovarian): 3150 nM
- GI50 (HCC-2998 colon): 1530 nM
- TGI (HCC-2998 colon): 7250 nM
- GI50 (HL-60(TB) leukemia): 632 nM
- TGI (HL-60(TB) leukemia): 2520 nM
- GI50 (SNB-19 CNS): 3740 nM
- TGI (SNB-19 CNS): 16400 nM
- GI50 (SK-MEL-5 melanoma): 1410 nM
- TGI (SK-MEL-5 melanoma): 3340 nM
- GI50 (NCI/ADR-RES ovarian): 1540 nM
- TGI (NCI/ADR-RES ovarian): 12300 nM
- GI50 (UACC-257 melanoma): 2760 nM
- TGI (UACC-257 melanoma): 10700 nM
